Reference: patent US8476265B2, “Compounds-801” (AstraZeneca AB, priority 2010, dated 2013)

Tests used:
[1] = molecular target: T1, human muscarinic acetylcholine M3 receptor (Homo sapiens, UniProt P20309); assay: Muscarinic 3 receptor binding assay ([3H]NMS competition, SPA), single concentration 1 μM; details: 1 μM compound; % inhibition specific [3H]-NMS binding
T1 construct: expressed in transfected cells; host or cells: CHO-K1 (Chinese Hamster Ovary) cell membranes
Description: The following experimental procedure was used to determine the M3% inhibition at 1 μM of the compounds of Examples 99-175
Muscarinic 3 Receptor Binding Assay
The activity (% inhibition specific binding) of compounds on the M3 receptor is determined by competition binding of [^3H]N-methyl scopolamine (NMS) to CHO-K1 (Chinese Hamster Ovary) cell membranes expressing the human muscarinic acetylcholine M3 receptor (M3-ACh) in a scintillation proximity assay (SPA) format. SPA beads are precoated with membranes and then incubated at 2 mg of beads per well with 1 μM compound of the invention, [^3H]NMS at 0.1 nM, quarter Kd (experimentally determined dissociation constant) and assay buffer (20 mM HEPES pH 7.4 containing 5 mM MgCl2 and 0.1% (w/v) bovine serum albumin). The assay is conducted in a final volume of 200 μL, in the presence of 1% (v/v) dimethyl sulphoxide (DMSO). Total binding of [^3H]NMS is determined in the absence of competing compound and non-specific binding of [^3H]NMS is determined in the presence of 1 μM atropine. The plates are incubated for 16 hours at room temperature and then read on Wallac Microbeta™ using a normalised ^3H protocol. The compound activity at 1 μM, defined as % inhibition specific [^3H]-NMS binding, is determined.

Adrenergic β2 = molecular target: T2, Adrenergic β2 (Homo sapiens, UniProt P07550); assay: Adrenergic β2 mediated cAMP production in H292 cells, single concentration 1 μM; assay type: cell-based; details: cAMP as percentage of the maximum response generated by 1E-07M formoterol; for percent of formoterol maximum response at 1 µM: NCI-H292, 1 μM compound, read-out: β2 % effect @1 uM
T2 construct: Adherent H292 cells are removed from tissue culture flasks by treatment with Accutase™ cell detachment solution; endogenous in cells; host or cells: H292 cells
T2 sequence (P07550 whole entry): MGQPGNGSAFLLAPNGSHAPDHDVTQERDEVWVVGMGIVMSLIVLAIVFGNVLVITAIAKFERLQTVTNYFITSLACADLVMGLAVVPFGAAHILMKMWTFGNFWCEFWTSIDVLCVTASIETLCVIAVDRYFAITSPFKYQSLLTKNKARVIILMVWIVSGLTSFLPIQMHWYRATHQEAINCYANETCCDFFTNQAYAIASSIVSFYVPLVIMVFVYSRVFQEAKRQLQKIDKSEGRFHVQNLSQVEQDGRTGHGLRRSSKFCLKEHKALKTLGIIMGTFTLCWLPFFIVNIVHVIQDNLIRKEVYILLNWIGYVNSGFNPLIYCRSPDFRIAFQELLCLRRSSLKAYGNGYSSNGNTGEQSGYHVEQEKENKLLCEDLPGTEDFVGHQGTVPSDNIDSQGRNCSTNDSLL
Description: The following experimental procedure was used to measure the beta-2% effect at 1 μM for the compounds of Examples 99-175. Adrenergic p2 Mediated cAMP Production Cell Preparation
H292 cells are grown in 225 cm2 flasks incubator at 37° C., 5% CO2 in RPMI medium containing 10% (v/v) FBS (foetal bovine serum) and 2 mM L-glutamine.
Compounds are prepared by an initial first dilution into DMSO to give 1 mM stock concentration. This is followed by a 1 in 10 dilution of the stock concentration (10 μl stock compound +90 μl DMSO) to give 0.1 mM compound. A compound addition plate is prepared by making a further 1 in 25 dilution in assay buffer (HBSS solution containing 10 mM HEPES pH7.4 and 5 mM glucose) containing 4% dimethylsulfoxide. The final compound concentration in assay is 1 μM.
Adherent H292 cells are removed from tissue culture flasks by treatment with Accutase™ cell detachment solution for 15 minutes. Flasks are incubated for 15 minutes in a humidified incubator at 37° C., 5% CO2. Detached cells are re-suspended in RPMI media (containing 10% (v/v) FBS and 2 mM L-glutamine) at 0.1×10^6 cells per mL. 10000 cells in 100 μL are added to each well of a tissue-culture-treated 96-well plate and the cells incubated overnight in a humidified incubator at 37° C., 5% CO2. The culture media is removed and cells are washed twice with 100 μL assay buffer and replaced with 50 μL assay buffer (HBSS solution containing 10 mM HEPES pH7.4 and 5 mM glucose). Cells are rested at room temperature for 20 minutes after which time 25 μL of rolipram (1.2 mM made up in assay buffer) is added. Cells are incubated with rolipram for 10 minutes after which time 25 μl test compounds are added and the cells are incubated for 60 minutes at room temperature. The final rolipram concentration in the assay is 300 μM and final vehicle concentration is 1% (v/v) dimethylsulphoxide. The reaction is stopped by removing supernatants, washing once with 100 μL assay buffer and replacing with 50 μL lysis buffer. The cell monolayer is frozen at −80° C. for 30 minutes (or overnight).
AlphaScreen™ cAMP Detection
The concentration of cAMP (cyclic adenosine monophosphate) in the cell lysate is determined using AlphaScreen™ methodology. The frozen cell plate is thawed for 20 minutes on a plate shaker then 10 μL of the cell lysate is transferred to a 96-well white plate. 40 μl of mixed AlphaScreen™ detection beads (containing equal volumes of donor beads (pre-incubated with biotinylated cAMP in the dark for 30 minutes) and acceptor beads is added to each well and the plate incubated at room temperature for 3 hours in the dark. The AlphaScreen™ signal is measured using an EnVision spectrophotometer (Perkin-Elmer Inc.) with the recommended manufacturer's settings. Concentration of cAMP produced per well were calculated with reference to the cAMP standard curve determined in the same experiment and expressed as a percentage of the maximum response generated by 1E-07M formoterol.

T1 sequence (P20309 whole entry): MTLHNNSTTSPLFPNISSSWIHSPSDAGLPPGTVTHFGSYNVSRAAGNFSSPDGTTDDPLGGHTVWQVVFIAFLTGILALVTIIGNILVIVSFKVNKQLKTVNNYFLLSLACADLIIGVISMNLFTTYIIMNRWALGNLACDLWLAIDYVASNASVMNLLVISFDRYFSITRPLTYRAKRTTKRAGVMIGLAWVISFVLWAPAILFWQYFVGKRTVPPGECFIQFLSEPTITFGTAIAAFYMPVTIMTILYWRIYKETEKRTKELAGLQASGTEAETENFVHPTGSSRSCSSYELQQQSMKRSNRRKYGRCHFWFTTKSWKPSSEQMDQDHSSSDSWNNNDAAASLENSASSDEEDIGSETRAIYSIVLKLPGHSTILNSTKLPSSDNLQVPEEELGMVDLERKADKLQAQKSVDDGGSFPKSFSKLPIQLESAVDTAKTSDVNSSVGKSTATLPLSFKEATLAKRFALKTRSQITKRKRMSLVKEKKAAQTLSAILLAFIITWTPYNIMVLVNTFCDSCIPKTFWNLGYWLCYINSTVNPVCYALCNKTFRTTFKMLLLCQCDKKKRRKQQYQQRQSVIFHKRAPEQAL

Row | SMILES | inhibition at 1 µM [1] | percent of formoterol maximum response at 1 µM (Adrenergic β2) | M3 % inhibition @1 uM [1] | β2 % effect @1 uM (Adrenergic β2; 1 μM compound)
1 | O=C1COc2c(CCNCCN(C(=O)CCOCCc3cccc(CN4CCC5(CC4)CN(C(=O)c4cnccc4C(F)(F)F)CCO5)c3)C3CCCCC3)ccc(O)c2N1 [Example 121, N-Cyclohexyl-N-(2-(2-(5-hydroxy-3-oxo-3,4-dihydro-2H-benzo[b][1,4]oxazin-8-yl)ethylamino)ethyl)-3-(3-((4-(4-(trifluoromethyl)nicotinoyl)-1-oxa-4,9-diazaspiro[5.5]undecan-9-yl)methyl)phenethoxy)propanamide] | 88% | 84% |  | 
2 | O=C1COc2c(CCNCCN(C(=O)CCOCCc3cccc(CN4CCC5(CC4)CN(C(=O)CC4(O)CCCCCC4)CCO5)c3)C3CCCCC3)ccc(O)c2N1 [Example 148, N-Cyclohexyl-N-(2-(2-(5-hydroxy-3-oxo-3,4-dihydro-2H-benzo[b][1,4]oxazin-8-yl)ethylamino)ethyl)-3-(3-((4-(2-(l-hydroxycycloheptyl)acetyl)-1-oxa-4,9-diazaspiro[5.5]undecan-9-yl)methyl)phenethoxy)propanamide] |  |  | 95% | 108%
3 | Cc1nc2cc(C(=O)N3CCOC4(CCN(Cc5cccc(CCOCCC(=O)N(CCNCCc6ccc(O)c7c6OCC(=O)N7)C6CCCCC6)c5)CC4)C3)ccc2[nH]1 [Example 117, N-Cyclohexyl-N-(2-(2-(5-hydroxy-3-oxo-3,4-dihydro-2H-benzo[b][1,4]oxazin-8-yl)ethylamino)ethyl)-3-(3-((4-(2-methyl-1H-benzo[d]imidazole-5-carbonyl)-1-oxa-4,9-diazaspiro[5.5]undecan-9-yl)methyl)phenethoxy)propanamide] | 99% | 90% |  | 
4 | O=C1COc2c(CCNCCN(C(=O)CCOCCc3cccc(CN4CCC5(CC4)CN(C(=O)Cc4noc6ccccc46)CCO5)c3)C3CCCCC3)ccc(O)c2N1 [Example 124, 3-(3-((4-(2-(Benzo[d]isoxazol-3-yl)acetyl)-1-oxa-4,9-diazaspiro[5.5]undecan-9-yl)methyl)phenethoxy)-N-cyclohexyl-N-(2-(2-(5-hydroxy-3-oxo-3,4-dihydro-2H-benzo[b][1,4]oxazin-8-yl)ethylamino)ethyl)propanamide] | 100% | 101% |  | 
5 | CCOc1ncccc1C(=O)N1CCOC2(CCN(Cc3cccc(CCOCCC(=O)N(CCNCCc4ccc(O)c5c4OCC(=O)N5)C4CCCCC4)c3)CC2)C1 [Example 101, N-Cyclohexyl-3-(3-((4-(2-ethoxynicotinoyl)-1-oxa-4,9-diazaspiro[5.5]undecan-9-yl)methyl)phenethoxy)-N-(2-(2-(5-hydroxy-3-oxo-3,4-dihydro-2H-benzo[b][1,4]oxazin-8-yl)ethylamino)ethyl)propanamide] | 95% | 105% |  | 
6 | O=C1COc2c(CCNCCN(C(=O)CCOCCc3cccc(CN4CCC5(CC4)CN(C(=O)COCc4nc6ccccc6s4)CCO5)c3)C3CCCCC3)ccc(O)c2N1 [Example 126, 3-(3-((4-(2-(Benzo[d]thiazol-2-ylmethoxy)acetyl)-1-oxa-4,9-diazaspiro[5.5]undecan-9-yl)methyl)phenethoxy)-N-cyclohexyl-N-(2-(2-(5-hydroxy-3-oxo-3,4-dihydro-2H-benzo[b][1,4]oxazin-8-yl)ethylamino)ethyl)propanamide] | 101% | 103% |  | 
7 | Cc1cc2ncc(C(=O)N3CCOC4(CCN(Cc5cccc(CCOCCC(=O)N(CCNCCc6ccc(O)c7c6OCC(=O)N7)C6CCCCC6)c5)CC4)C3)c(C)n2n1 [Example 108, N-Cyclohexyl-3-(3-((4-(2,7-dimethylpyrazolo[1,5-a]pyrimidine-6-carbonyl)-1-oxa-4,9-diazaspiro[5.5]undecan-9-yl)methyl)phenethoxy)-N-(2-(2-(5-hydroxy-3-oxo-3,4-dihydro-2H-benzo[b][1,4]oxazin-8-yl)ethylamino)ethyl)propanamide] | 80% | 98% |  | 

Now from value to compound, other results behind:

Row | inhibition at 1 µM [1] | percent of formoterol maximum response at 1 µM (Adrenergic β2) | SMILES | M3 % inhibition @1 uM [1] | β2 % effect @1 uM (Adrenergic β2; 1 μM compound)
8 | 99% | 79% | CCCC(C)C(=O)N1CCOC2(CCN(Cc3cccc(CCOCCC(=O)N(CCNCCc4ccc(O)c5c4OCC(=O)N5)C4CCCCC4)c3)CC2)C1 (stereo not drawn) [Example 160, N-Cyclohexyl-N-(2-(2-(5-hydroxy-3-oxo-3,4-dihydro-2H-benzo[b][1,4]oxazin-8-yl)ethylamino)ethyl)-3-(3-((4-(2-methylpentanoyl)-1-oxa-4,9-diazaspiro[5.5]undecan-9-yl)methyl)phenethoxy)propanamide] |  | 
9 | 100% | 94% | Cc1ccccc1CC(=O)N1CCOC2(CCN(Cc3cccc(CCOCCC(=O)N(CCNCCc4ccc(O)c5c4OCC(=O)N5)C4CCCCC4)c3)CC2)C1 [Example 139, N-Cyclohexyl-N-(2-(2-(5-hydroxy-3-oxo-3,4-dihydro-2H-benzo[b][1,4]oxazin-8-yl)ethylamino)ethyl)-3-(3-((4-(2-o-tolylacetyl)-1-oxa-4,9-diazaspiro[5.5]undecan-9-yl)methyl)phenethoxy)propanamide] |  | 
10 | 90% | 117% | O=C1COc2c(CCNCCN(C(=O)CCOCCc3cccc(CN4CCC5(CC4)CN(C(=O)c4cnc(-c6ccccc6)[nH]4)CCO5)c3)C3CCCCC3)ccc(O)c2N1 [Example 145, N-Cyclohexyl-N-(2-(2-(5-hydroxy-3-oxo-3,4-dihydro-2H-benzo[b][1,4]oxazin-8-yl)ethylamino)ethyl)-3-(3-((4-(2-phenyl-1H-imidazole-5-carbonyl)-1-oxa-4,9-diazaspiro[5.5]undecan-9-yl)methyl)phenethoxy)propanamide] |  | 
11 | 97% | 113% | O=C1COc2c(CCNCCN(C(=O)CCOCCc3cccc(CN4CCC5(CC4)CN(C(=O)CCCOCc4ccccc4)CCO5)c3)C3CCCCC3)ccc(O)c2N1 [Example 151, 3-(3-((4-(4-(Benzyloxy)butanoyl)-1-oxa-4,9-diazaspiro[5.5]undecan-9-yl)methyl)phenethoxy)-N-cyclohexyl-N-(2-(2-(5-hydroxy-3-oxo-3,4-dihydro-2H-benzo[b][1,4]oxazin-8-yl)ethylamino)ethyl)propanamide] |  | 
12 | 98% | 97% | O=C1COc2c(CCNCCN(C(=O)CCOCCc3cccc(CN4CCC5(CC4)CN(C(=O)c4c(F)cccc4F)CCO5)c3)C3CCCCC3)ccc(O)c2N1 [Example 163, N-Cyclohexyl-3-(3-((4-(2,6-difluorobenzoyl)-1-oxa-4,9-diazaspiro[5.5]undecan-9-yl)methyl)phenethoxy)-N-(2-(2-(5-hydroxy-3-oxo-3,4-dihydro-2H-benzo[b][1,4]oxazin-8-yl)ethylamino)ethyl)propanamide] |  | 
